Experimental findings from patent US11466028B2, “Fused 1,4-oxazepines as BET protein degraders” (THE REGENTS OF THE UNIVERSITY OF MICHIGAN, priority 2016, dated 2022) are described below.

In one assay the test system is MDA-MB-157. The assay is described as follows: WST-8 cell growth inhibition assay, MDA-MB-157. Format: cell-based. To be noted: Homo sapiens, WST-8, Table 6. The procedure:
Cpd. Nos. 7 and 18 were tested in various triple-negative breast cancer cell lines using the WST-8 cell growth assay.
In general terms: Tetrazolium assays rely on reduction of a dye to a coloured formazan, in cell work by metabolically active cells.

The target in a further assay is T1, BRD2 (Homo sapiens, UniProt P25440).
T1 construct: endogenous in cells; host or cells: RS4;11 and MOLM-13 leukemia cells
T1 sequence (P25440 whole entry): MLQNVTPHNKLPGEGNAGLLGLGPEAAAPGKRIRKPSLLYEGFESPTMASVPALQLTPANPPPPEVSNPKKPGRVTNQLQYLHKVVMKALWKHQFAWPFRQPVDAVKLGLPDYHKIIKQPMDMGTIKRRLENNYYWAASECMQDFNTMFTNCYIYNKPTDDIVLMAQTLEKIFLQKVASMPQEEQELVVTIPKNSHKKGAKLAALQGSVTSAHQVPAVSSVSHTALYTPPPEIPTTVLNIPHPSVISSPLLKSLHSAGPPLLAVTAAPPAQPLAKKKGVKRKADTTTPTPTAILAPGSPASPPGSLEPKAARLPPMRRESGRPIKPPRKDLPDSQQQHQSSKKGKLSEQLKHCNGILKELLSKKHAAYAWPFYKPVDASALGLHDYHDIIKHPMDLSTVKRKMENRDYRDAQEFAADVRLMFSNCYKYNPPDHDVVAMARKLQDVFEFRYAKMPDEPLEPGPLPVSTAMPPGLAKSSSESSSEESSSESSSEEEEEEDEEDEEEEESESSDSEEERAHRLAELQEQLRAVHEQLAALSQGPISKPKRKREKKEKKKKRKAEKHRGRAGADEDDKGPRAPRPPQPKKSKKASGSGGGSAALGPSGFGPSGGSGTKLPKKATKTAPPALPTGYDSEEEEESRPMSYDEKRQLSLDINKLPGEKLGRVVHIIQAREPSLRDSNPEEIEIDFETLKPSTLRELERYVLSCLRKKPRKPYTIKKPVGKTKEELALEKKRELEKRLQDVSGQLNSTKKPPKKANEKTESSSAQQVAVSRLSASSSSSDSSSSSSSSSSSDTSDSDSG
As to the kind of experiment: Western blot, degradation of BRD2 in MOLM-13 cells. To be noted: 3 h, as compared to Compound A, FIG. 2. The class given is cell-based. The procedure:
(§1) Cells were treated with compounds at the indicated concentrations for 2.5 h and 3 h, respectively, for RS4;11 (see FIG. 1) and MOLM-13 (see FIG. 2) cells. Compound A is ((S)-3-benzyl-6,9-dimethyl-2-((1-methyl-1H-pyrazol-4-yl)ethynyl)-4H,6H-thieno[2,3-e][1,2,4]triazolo[3,4-c][1,4]oxazepine). See Cpd. No. 85 of U.S. Appl. No. 62/295,271.
(§2) Collected cells were lysed in lysis buffer [1% CHAPS, 150 mM NaCl, 20 mM Tris-HCl, 1 mM. EDTA, 1 mM EGTA, and COMPLETE proteinase inhibitor (Roche)] for 30 minutes on ice. Protein concentrations were determined using the Bio-Rad Protein Assay Dye reagent. Whole tumor lysates (20 μg) were separated on a 4-20% Novex gels (Invitrogen). The separated proteins were transferred to a PVDF membrane (BIO-RAD) and the PVDF membrane was then blotted with 5% Blotting-Grade Blocker (BIO-RAD) for 1 hour at room temperature. The primary antibodies used were BRD4 rabbit polyclonal antibody [Bethyl Laboratories, Inc, cat #A301] and BRD2 antibody.
(§3) The BIO-RAD Clarity Western ECL Substrates (BIO-RAD) and HyBlot CL film (Denville) were used for signal development and detection using a SRX-101A tabletop processor (Konica Minolta).
(In general: In western blotting, separated proteins are transferred to a membrane and probed.)

The subject of another assay is WHIM24 breast cancer PDX. As to the kind of experiment: WHIM24 breast cancer PDX model. The class given is in vivo. To be noted: FIG. 5. On the procedure:
(§4) Representative Compounds of the Disclosure were tested in the RS4;11 and other xenograph models using similar techniques. […] No. 22 in the MDA-MB-231 TNBC model.

For a further assay, the system named is KG1. The assay is described as follows: CellTiter-Glo cell viability, KG1 leukemia cell line. The class given is cell-based. The following applies: Homo sapiens, KG-1, Table 5. On the procedure: (§5) Cell growth inhibitory activity of representative Compounds of the Disclosure was determined using the CellTiter-Glo® Luminescent Cell Viability Assay. Cells were seeded in 384-well white opaque cell culture plates at a density of 2,000 cells/well with serially diluted compounds and incubated at 37° C. in an atmosphere of 95% air and 5% CO2 for 4 days. Cell viability was determined using the CellTiter-Glo® Luminescent Cell Viability Assay Kit (Promega, Madison, Wis.) according to the manufacture's instruction. Briefly, a volume of CellTiter-Glo® Reagent equal to the volume of cell culture medium was added to each well, and then the plates were incubated at room temperature for 10-20 minutes. The luminescent signal was measured using a Tecan Infinite M1000 multimode microplate reader (Tecan, Morrisville, N.C.). The half maximal inhibitory concentration (IC50) was calculated using the GraphPad Prism 5 software (GraphPad Software, La Jolla, Calif.).
(§6) Cpd. Nos. 18 and 19 were tested in various leukemia cell lines using the CellTiter-Glo® Luminescent Cell Viability Assay as described in Example 35.
In general terms: Cellular ATP, detected with luciferase, serves as a proxy for viable cell number.

The next assay deals with T2, BRD4 (Homo sapiens, UniProt O60885).
T2 construct: Collected cells were lysed in lysis buffer; endogenous in cells; host or cells: RS4;11 and MOLM-13 leukemia cells
As to the kind of experiment: Western blot, degradation of BRD4 in RS4;11 cells. Format: cell-based. The following applies: 2.5 h, as compared to Compound A, FIG. 1. On the procedure:
as §1, §2, §3

Another assay has as its system RS4;11 xenograph tumors. As to the kind of experiment: RS4;11 xenograft model. The class given is in vivo, SCID mice. The following applies: SCID mice, i.v. 5 mg/kg at days 1, 3, 5 per week for two weeks, FIG. 4. The procedure:
Cpd. Nos. 7 and 11 were dissolved in 10% PCP [10% PEG400 (Sigma), 3% Cremophor (Sigma), and 87% PBS (Gibco)]. The pH of the drug solutions were checked before use and adjusted with 0.5N NaOH to be between pH 6.5 and 8.0 for IV (intravenous) administration.
RS4;11 cells were maintained at 37° C., 95% air, 5% carbon dioxide in Improved MEM (Richter's Mod.) supplemented with 10% Fetal Bovine Serum, 100 units/ml of penicillin and 100 units/ml of streptomycin (GIBCO™, Invitrogen Corp.) and passaged twice weekly.
Tumor cells for xenografts were harvested with Trypsin (0.05%)-EDTA (0.53 mM) (GIBCO™, Invitrogen Corp.), growth medium added and cells placed on ice. Cells were washed once with 1×PBS (GIBCO™, Invitrogen Corp.) and re-suspended in PBS. After washing in PBS, cells were re-suspended in an ice cold mixture of 1:1 PBS and Matrigel (BD Biosciences, Invitrogen Corp.) for a final Matrigel protein concentration of 5 mg/ml. Cells at 5×10^6 cells in 0.1 ml were injected subcutaneously (s.c.) into the flank region of each mouse using a 25 gauge needle. All tumors were inoculated into SCID mice (strain:236) C.B-17 SCID, Charles River.
The size of tumors growing in the mice was measured in two dimensions using calipers. Tumor volume (mm^3)═(A×B^2)/2 where A and B are the tumor length and width (in mm), respectively. During treatment, tumor volume and body weight were measured three times a week. After the treatment was stopped, tumor volume and body weight was measured at least once a week.
Tumors were not allowed to exceed 10% of the animals total body weight. If an animal had two or more tumors the total weight of all tumors were not allowed to exceed 10% of the animal's total body weight. At the end of the experimental period or when tumor size approached 10% of the total body weight, the animal was euthanized.
Before treatment began, tumors were allowed to grow to 100-200 mm^3 in volume, at which point the blood vessel supplies to the tumor should have been well established. Mice with tumors within acceptable size range were randomized into treatment groups of seven mice. Cpd. Nos. 7 and 11 were given i.v. at 10 mg/kg at days 1,3, and 5 per week for two weeks. The Control group received vehicle alone. Cpd. Nos. 16, 18, 22 and 48 were given i.v. at 5 mg/kg at days 1, 3, and 5 per week for two weeks. The Control group received vehicle alone.
as §4

In another assay the test system is MOLM16. The assay is described as follows: CellTiter-Glo cell viability, MOLM16 leukemia cell line. The class given is cell-based. To be noted: Table 5. On the procedure:
as §5, §6

For orientation: IC50 means the concentration that inhibits the measured activity by half. Read a high IC50 as lower potency. Take `Cc1nnc2n1-c1sc(C#Cc3cnn(CCCC#Cc4cccc5c4CN(C4CCC(=O)NC4=O)C5=O)c3)c(Cc3ccccc3)c1CO[C@H]2C` (stereo partly drawn) [Cpd. No. 18, 3-(4-(5-(4-(((S)-3-benzyl-6,9-dimethyl-4H,6H-thieno[2,3-e][1,2,4]triazolo[3,4-c][1,4]oxazepin-2-yl)ethynyl)-1H-pyrazol-1-yl)pent-1-yn-1-yl)-1-oxoisoindolin-2-yl) piperidine-2,6-dione]: the IC50 in the assay with MDA-MB-157 was 0.06 ± 0.01 nM; in the assay on KG1, 0.047 ± 0.02 nM; in the assay on MOLM16, less than 0.01 nM. In addition, the “degradation of BRD2 protein (Western blot)” value at BRD2 is “induce degradation”. Besides, the “tumor regression in the WHIM24 breast cancer PDX model” value with WHIM24 breast cancer PDX is given as “induces tumor regression”. The “degradation of BRD4 protein (Western blot)” value on BRD4 is reported as “induce degradation”. Also, the “tumor regression in RS4;11 xenograph tumors” value in the assay on RS4;11 xenograph tumors is “induce tumor regression”.
